Reference: the supplement of paper PMC11061612

Experiments:
Test in all cases: Bliss excess, mean over the matrix (fraction); higher = more synergy
[1] = tested on: EB-3 (Burkitt's Lymphoma)
Outline: (§1)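 Cell lines in DMEM/F12 or RPMI with 10% FBS were plated in 1536-well plates, held 24 hours at 37°C, 5% CO2, then given two-drug dose matrices for 72 hours (DMSO typically 0.2%). Viability was read by CellTiter-Glo 2.0 luminescence and scaled as inhibition from 0 (vehicle wells) to 1 (blank wells). Combination Emax is the second-highest inhibition in the matrix; Bliss excess is observed combination effect minus expected EA + EB − EA·EB, EA and EB being single-agent effects.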

[2] = tested on: SJRH30 (Rhabdomyosarcoma)
Outline: as §1

[3] = tested on: COLO-684 (Endometrial Carcinoma)
Outline: as §1

[4] = tested on: OVTOKO (Ovarian Carcinoma)
Outline: as §1

[5] = tested on: HTC-C3 (Thyroid Gland Carcinoma)
Outline: as §1

[6] = tested on: NCI-H1755 (Lung Adenocarcinoma)
Outline: as §1

[7] = tested on: SNU-175 (Colorectal Carcinoma)
Outline: as §1

[8] = tested on: NCI-H810 (Non-Small Cell Lung Carcinoma)
Outline: as §1

[9] = tested on: PC-14 (Lung Adenocarcinoma)
Outline: as §1

[10] = tested on: KYSE-70 (Esophageal Squamous Cell Carcinoma)
Outline: as §1

[11] = tested on: AsPC-1 (Pancreatic Carcinoma)
Outline: as §1

[12] = tested on: RPMI-8866 (Chronic Myelogenous Leukemia)
Outline: as §1

[13] = tested on: RERF-LC-KJ (Lung Adenocarcinoma)
Outline: as §1

[14] = tested on: NCI-H1155 (Non-Small Cell Lung Carcinoma)
Outline: as §1

[15] = tested on: AN3-CA (Endometrial Carcinoma)
Outline: as §1

[16] = tested on: KYM-1 (Rhabdomyosarcoma)
Outline: as §1

[17] = tested on: HSC-3 (Oral Cavity Carcinoma)
Outline: as §1

[18] = tested on: OV-90 (Ovarian Carcinoma)
Outline: as §1

[19] = tested on: BALL-1 (B-Lymphoblastic Leukemia)
Outline: as §1

[20] = tested on: RT4 (Bladder Carcinoma)
Outline: as §1

| Structure (SMILES) | Bliss excess [1] | Bliss excess [2] | Bliss excess [3] | Bliss excess [4] | Bliss excess [5] | Bliss excess [6] | Bliss excess [7] | Bliss excess [8] | Bliss excess [9] | Bliss excess [10] | Bliss excess [11] | Bliss excess [12] | Bliss excess [13] | Bliss excess [14] | Bliss excess [15] | Bliss excess [16] | Bliss excess [17] | Bliss excess [18] | Bliss excess [19] | Bliss excess [20] |
| --- | --- | --- | --- | --- | --- | --- | --- | --- | --- | --- | --- | --- | --- | --- | --- | --- | --- | --- | --- | --- |
| COc1cccc(OCCCN)c1-c1cc(Nc2cnc(C#N)cn2)n[nH]1 [Prexasertib] + C=CCn1c(=O)c2cnc(Nc3ccc(N4CCN(C)CC4)cc3)nc2n1-c1cccc(C(C)(C)O)n1 [AZD1775] (first compound max 1 µM, partner max 1 µM) | 0.0312 | 0.108 | -0.0042 | -0.0519 | 0.145 | -0.0104 | 0.0595 | 0.0869 | 0.0069 | 0.0874 | -0.0189 | 0.0591 | 0.0487 | 0.0998 | 0.0766 | 0.0713 | 0.121 | -0.0477 | 0.0618 | 0.128 |
| NC1(C(=O)N[C@@H](CCO)c2ccc(Cl)cc2)CCN(c2ncnc3[nH]ccc23)CC1 [Capivasertib] + Cn1cnc2c(F)c(Nc3ccc(Br)cc3Cl)c(C(=O)NOCCO)cc21 [Selumetinib] (first compound max 10 µM, 7x7, partner max 10 µM) | -0.0424 | 0.0297 | -0.0343 | -0.0566 | 0.0677 | 0.0295 | -0.0408 | -0.014 | 0.0938 | -0.0073 | -0.039 | 0.0602 | 0.0517 | 0.0293 | -0.0016 | -0.0072 | 0.0081 | -0.0313 | 0.0317 | -0.0196 |
| Cc1c2c(nn1C)CSCc1cc(n(C)n1)CSc1cc(c3ccccc3c1)OCCCc1c(C(=O)O)n(C)c3c-2c(Cl)ccc13 [AZD5991] + C[C@@H](Nc1cc(F)cc(F)c1)c1cc(C(=O)N(C)C)cc2c(=O)cc(N3CCOCC3)oc12 [AZD8186] (first compound max 1 µM, 7x7, partner max 3 µM) | -0.0275 | -0.0138 | -0.0292 | -0.0196 | -0.014 | 0.0317 | 0.0048 | -0.034 | 0.0129 | -0.0136 | -0.0414 | -0.041 | 0.0598 | -0.0105 | 0.0606 | 0.0291 | -0.001 | -0.0496 | -0.0163 | 0.0434 |
| NC1(C(=O)N[C@@H](CCO)c2ccc(Cl)cc2)CCN(c2ncnc3[nH]ccc23)CC1 [Capivasertib] + CC(=O)c1c(C)c2cnc(Nc3ccc(N4CCNCC4)cn3)nc2n(C2CCCC2)c1=O [Palbociclib] (first compound max 10 µM, 7x7, partner max 10 µM) | -0.0328 | -0.0084 | -0.0759 | -0.0688 | 0.0437 | 0.0036 | -0.0442 | -0.0346 | 0.0388 | 0.0188 | -0.025 | 0.0215 | 0.0307 | -0.0084 | -0.0282 | -0.0312 | -0.0076 | -0.0562 | 0.0245 | 0.0114 |
| CN(C)CCCOc1ccc(-c2ccc3ncc4c(c3c2)n(C2CCOCC2)c(=O)n4C)cn1 [AZD0156] + O=C(c1cc(Cc2n[nH]c(=O)c3ccccc23)ccc1F)N1CCN(C(=O)C2CC2)CC1 [Olaparib] (first compound max 3 µM, partner max 3 µM) | 0.0234 | 0.0963 | 0.0274 | -0.0032 | -0.0502 | -0.0055 | 0.105 | 0.0541 | -0.0009 | -0.0054 | 0.005 | 0.0607 | -0.0459 | 0.103 | 0.0263 | 0.185 | 0.132 | 0.035 | 0.158 | -0.0044 |
| CCN(CCO)CCCOc1ccc2c(Nc3cc(CC(=O)Nc4cccc(F)c4)[nH]n3)ncnc2c1 [AZD2811] + O=C(c1cc(Cc2n[nH]c(=O)c3ccccc23)ccc1F)N1CCN(C(=O)C2CC2)CC1 [Olaparib] (first compound max 1 µM, 7x7, partner max 10 µM) | -0.0307 | 0.0189 | -0.0102 | -0.012 | -0.0101 | 0.0146 | -0.0141 | -0.016 | 0.0228 | 0.0005 | -0.0273 | 0.147 | -0.0471 | 0.0393 | -0.0011 | 0.0071 | 0.0273 | -0.0026 | 0.147 | 0.0243 |
| Cc1nc(Nc2ncc(C(=O)Nc3c(C)cccc3Cl)s2)cc(N2CCN(CCO)CC2)n1 [Dasatinib] + CC(=O)Nc1cccc(-n2c(=O)n(C3CC3)c(=O)c3c(Nc4ccc(I)cc4F)n(C)c(=O)c(C)c32)c1 [Trametinib] (first compound max 2 µM, 7x7, partner max 1 µM) | -0.0156 | -0.0973 | -0.0482 | -0.139 | -0.0093 | -0.0052 | -0.0992 | -0.0565 | 0.0079 | -0.0729 | 0.0506 | 0.073 | -0.0295 | -0.0132 | -0.168 | -0.0178 | -0.0444 | -0.0067 | -0.0108 | -0.0057 |
